Data on two compounds can be found in patent US20200191798A1, “DOSE DETERMINATION FOR IMMUNOTHERAPEUTIC AGENTS” (BIONTECH RNA PHARMACEUTICALS GMBH, priority 2016, published 2020).

The test system of the assay is cytokines in the blood. Briefly: Plasma cytokines after intravenous infusion of TLR-7 agonists in cynomolgus monkeys. In kind it is in vivo, cynomolgus monkey. The conditions noted are these: thirty minute i.v. infusion. From the text:
The objective of the following study was to observe the effect of the in vivo administration of different amounts of small molecule agonists of TLR-7, N-(4-(4-amino-2-(2-methoxyethyl)-1H-imidazo[4,5-c]quinolin-1-yl)butyl)-N-(tetrahydro-2H-pyran-4-yl)acetamide (SM1) and N-(4-(4-amino-2-ethyl-1H-imidazo[4,5-c]quinolin-1-yl)butyl)-N-(1,1-dioxidothietan-3-yl)acetamide (SM3), on expression of various cytokines in the blood in a cynomolgus monkey model. The various cytokines whose expression was determined include interferon alpha, interleukin 1 receptor antagonist, interleukins 4, 6, 8, 10, 12, 15, 18, monocyte chemoattractant protein 1, granulocyte-colony stimulating factor, macrophage inflammatory protein 1 beta, tumor necrosis factor alpha, and vascular endothelial growth factor.
A defined single dose of one of the agonist compounds was administered intravenously to cynomolgus monkeys in a thirty minute infusion. […]
Cytokines levels were determined using an interferon alpha Elisa kit (e.g., VeriKine™ Cynomolgus/Rhesus IFNα ELISA Kit) and a Luminex® non-human primate cytokine/chemokine kit (e.g., Milliplex Non-Human Primate Cytokine/Chemokine Magnetic Premixed 23 Plex Panel), in accordance to the manufacturers' instructions. […]

On to `COCCc1nc2c(N)nc3ccccc3c2n1CCCCN(C(C)=O)C1CCOCC1` [SM1, N-(4-(4-amino-2-(2-methoxyethyl)-1H-imidazo[4,5-c]quinolin-1-yl)butyl)-N-(tetrahydro-2H-pyran-4-yl)acetamide], for which the “cytokine levels in plasma (FIGS. 10a-10kk)” value (male and female cynomolgus monkeys, 30, 100 or 300 μg/kg, then at 14 days 1, 3 or 10 mg/kg) is recorded as “production of various cytokines in a highly individual manner”. As to `CCc1nc2c(N)nc3ccccc3c2n1CCCCN(C(C)=O)C1CS(=O)(=O)C1` [SM3, N-(4-(4-amino-2-ethyl-1H-imidazo[4,5-c]quinolin-1-yl)butyl)-N-(1,1-dioxidothietan-3-yl)acetamide], under “male cynomolgus monkeys, 300 μg/kg, 1, 3 and 10 mg/kg”, the “cytokine levels in plasma (FIGS. 11a-11m)” value is on record as “production of various cytokines in a highly individual manner”.
